Measured values: patent US20250340886A1, “INTRACELLULAR KINASE ASSOCIATED WITH RESISTANCE AGAINST ANTI-TUMOUR IMMUNE RESPONSES, AND USES THEREOF” (iOmx Therapeutics AG, priority 2017, published 2025)
Like-named read-outs stand apart in the source and are kept apart here.

Columns and labels:
[1] = biological target: SIK1 (Homo sapiens (Human), UniProt P57059); test: radiometric protein kinase assay (33PanQinase Activity Assay, ProQinase Free Choice Kinase Assay); type: biochemical; details: ATP 3.0 uM, read-out: SIK1 IC50 rank
Chain of SIK1 (P57059 whole entry): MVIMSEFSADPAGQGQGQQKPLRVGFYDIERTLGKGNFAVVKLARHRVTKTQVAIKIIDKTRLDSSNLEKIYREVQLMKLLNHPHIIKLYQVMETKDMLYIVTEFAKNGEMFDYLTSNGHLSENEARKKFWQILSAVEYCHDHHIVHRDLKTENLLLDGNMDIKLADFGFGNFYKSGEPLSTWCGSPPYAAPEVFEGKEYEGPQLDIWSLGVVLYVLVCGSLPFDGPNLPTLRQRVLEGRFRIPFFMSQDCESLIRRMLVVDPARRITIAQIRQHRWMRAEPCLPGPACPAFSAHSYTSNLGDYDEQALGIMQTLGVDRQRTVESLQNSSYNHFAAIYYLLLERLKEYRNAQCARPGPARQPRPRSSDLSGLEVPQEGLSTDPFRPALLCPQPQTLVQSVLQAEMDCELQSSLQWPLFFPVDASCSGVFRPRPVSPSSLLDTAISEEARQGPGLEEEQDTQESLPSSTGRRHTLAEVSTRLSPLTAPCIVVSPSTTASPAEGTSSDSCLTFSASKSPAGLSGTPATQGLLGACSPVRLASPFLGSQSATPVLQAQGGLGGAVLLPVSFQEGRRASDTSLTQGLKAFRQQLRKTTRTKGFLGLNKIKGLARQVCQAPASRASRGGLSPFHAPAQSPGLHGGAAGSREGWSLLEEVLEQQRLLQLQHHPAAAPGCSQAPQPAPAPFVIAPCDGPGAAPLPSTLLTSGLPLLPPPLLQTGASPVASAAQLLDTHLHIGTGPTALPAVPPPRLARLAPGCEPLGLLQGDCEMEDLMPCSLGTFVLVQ

[2] = biological target: SIK2 (Homo sapiens (Human), UniProt Q9H0K1); test: as above; type: biochemical; details: ATP 1.0 uM, read-out: SIK2 IC50 rank
Chain of SIK2 (Q9H0K1 whole entry): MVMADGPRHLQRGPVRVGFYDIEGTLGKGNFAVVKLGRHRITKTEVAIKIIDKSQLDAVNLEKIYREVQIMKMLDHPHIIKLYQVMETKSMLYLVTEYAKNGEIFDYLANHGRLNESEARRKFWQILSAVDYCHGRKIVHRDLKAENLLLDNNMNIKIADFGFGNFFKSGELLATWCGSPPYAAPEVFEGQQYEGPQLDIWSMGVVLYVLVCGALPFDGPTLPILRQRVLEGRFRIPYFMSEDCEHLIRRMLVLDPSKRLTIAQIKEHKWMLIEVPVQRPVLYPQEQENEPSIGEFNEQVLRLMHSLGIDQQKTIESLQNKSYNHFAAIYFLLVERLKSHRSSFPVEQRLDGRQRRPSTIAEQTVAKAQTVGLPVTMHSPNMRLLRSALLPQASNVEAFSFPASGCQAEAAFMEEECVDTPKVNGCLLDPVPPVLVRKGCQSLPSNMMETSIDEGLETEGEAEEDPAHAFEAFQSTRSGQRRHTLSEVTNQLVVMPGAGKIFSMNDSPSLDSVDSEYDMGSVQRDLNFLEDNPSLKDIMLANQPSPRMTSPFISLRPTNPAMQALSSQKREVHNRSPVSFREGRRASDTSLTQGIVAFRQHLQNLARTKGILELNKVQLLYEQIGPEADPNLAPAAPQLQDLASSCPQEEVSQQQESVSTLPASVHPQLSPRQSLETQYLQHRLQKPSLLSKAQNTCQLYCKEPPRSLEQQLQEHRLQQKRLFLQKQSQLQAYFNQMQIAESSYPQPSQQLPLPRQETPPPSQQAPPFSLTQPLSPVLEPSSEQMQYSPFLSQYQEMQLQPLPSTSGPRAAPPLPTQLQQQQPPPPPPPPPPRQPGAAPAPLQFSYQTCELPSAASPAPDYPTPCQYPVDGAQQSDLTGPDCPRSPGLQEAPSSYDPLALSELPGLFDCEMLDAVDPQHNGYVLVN

[3] = biological target: SIK3 (Homo sapiens (Human), UniProt Q9Y2K2); test: as above; type: biochemical; details: read-out: SIK3 IC50 rank
Chain of SIK3 (Q9Y2K2 whole entry): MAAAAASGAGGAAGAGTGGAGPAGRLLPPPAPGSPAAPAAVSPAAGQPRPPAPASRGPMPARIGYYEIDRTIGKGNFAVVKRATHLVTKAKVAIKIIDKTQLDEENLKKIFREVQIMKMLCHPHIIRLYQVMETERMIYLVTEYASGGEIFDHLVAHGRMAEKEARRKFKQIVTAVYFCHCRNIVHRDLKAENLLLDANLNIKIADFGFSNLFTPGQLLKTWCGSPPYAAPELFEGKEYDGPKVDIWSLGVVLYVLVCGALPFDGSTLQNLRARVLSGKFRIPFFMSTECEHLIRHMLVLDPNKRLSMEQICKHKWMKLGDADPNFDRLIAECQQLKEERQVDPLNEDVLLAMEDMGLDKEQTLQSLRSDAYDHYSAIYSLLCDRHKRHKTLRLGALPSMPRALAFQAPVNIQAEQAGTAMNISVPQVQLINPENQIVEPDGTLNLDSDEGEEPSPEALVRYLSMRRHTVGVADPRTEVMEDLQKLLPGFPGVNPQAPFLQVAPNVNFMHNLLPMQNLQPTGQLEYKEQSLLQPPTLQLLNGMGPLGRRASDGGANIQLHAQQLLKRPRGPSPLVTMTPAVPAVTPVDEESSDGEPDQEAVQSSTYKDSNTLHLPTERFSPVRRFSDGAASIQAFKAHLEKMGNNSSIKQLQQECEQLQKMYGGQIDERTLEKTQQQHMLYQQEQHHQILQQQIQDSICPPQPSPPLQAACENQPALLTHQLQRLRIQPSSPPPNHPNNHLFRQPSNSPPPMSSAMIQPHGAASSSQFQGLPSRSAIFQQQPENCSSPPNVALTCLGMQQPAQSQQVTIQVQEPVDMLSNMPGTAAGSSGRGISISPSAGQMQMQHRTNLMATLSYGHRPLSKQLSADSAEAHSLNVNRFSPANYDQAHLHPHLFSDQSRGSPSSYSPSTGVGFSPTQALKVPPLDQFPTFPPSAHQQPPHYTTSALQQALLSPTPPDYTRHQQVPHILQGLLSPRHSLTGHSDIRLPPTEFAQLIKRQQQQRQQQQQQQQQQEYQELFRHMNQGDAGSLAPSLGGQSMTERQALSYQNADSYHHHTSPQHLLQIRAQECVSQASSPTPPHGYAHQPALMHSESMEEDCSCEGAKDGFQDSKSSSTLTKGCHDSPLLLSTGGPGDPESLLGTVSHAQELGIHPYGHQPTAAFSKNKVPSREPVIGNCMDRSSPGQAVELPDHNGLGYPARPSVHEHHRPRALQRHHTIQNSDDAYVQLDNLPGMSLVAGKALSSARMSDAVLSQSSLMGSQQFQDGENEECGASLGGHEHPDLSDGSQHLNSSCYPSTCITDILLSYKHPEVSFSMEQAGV

[4] = tested on: M579-A2-luc tumour cells; test: luciferase-based tumour cell viability assay, M579-A2-luc cells with inhibitor and TNF; details: for tumour cell survival (RLU): in combination with 10 ng/mL TNF, about 20 to 100 nM, FIG. 18
[5] = biological target: ABL1 wt (Homo sapiens (Human), UniProt P00519); test: radiometric protein kinase assay (33PanQinase Activity Assay, ProQinase Free Choice Kinase Assay); type: biochemical; details: indicative IC50, Table 4; ATP 0.3 uM; read-out: ABL1 IC50 rank
Chain of ABL1 wt (P00519 whole entry): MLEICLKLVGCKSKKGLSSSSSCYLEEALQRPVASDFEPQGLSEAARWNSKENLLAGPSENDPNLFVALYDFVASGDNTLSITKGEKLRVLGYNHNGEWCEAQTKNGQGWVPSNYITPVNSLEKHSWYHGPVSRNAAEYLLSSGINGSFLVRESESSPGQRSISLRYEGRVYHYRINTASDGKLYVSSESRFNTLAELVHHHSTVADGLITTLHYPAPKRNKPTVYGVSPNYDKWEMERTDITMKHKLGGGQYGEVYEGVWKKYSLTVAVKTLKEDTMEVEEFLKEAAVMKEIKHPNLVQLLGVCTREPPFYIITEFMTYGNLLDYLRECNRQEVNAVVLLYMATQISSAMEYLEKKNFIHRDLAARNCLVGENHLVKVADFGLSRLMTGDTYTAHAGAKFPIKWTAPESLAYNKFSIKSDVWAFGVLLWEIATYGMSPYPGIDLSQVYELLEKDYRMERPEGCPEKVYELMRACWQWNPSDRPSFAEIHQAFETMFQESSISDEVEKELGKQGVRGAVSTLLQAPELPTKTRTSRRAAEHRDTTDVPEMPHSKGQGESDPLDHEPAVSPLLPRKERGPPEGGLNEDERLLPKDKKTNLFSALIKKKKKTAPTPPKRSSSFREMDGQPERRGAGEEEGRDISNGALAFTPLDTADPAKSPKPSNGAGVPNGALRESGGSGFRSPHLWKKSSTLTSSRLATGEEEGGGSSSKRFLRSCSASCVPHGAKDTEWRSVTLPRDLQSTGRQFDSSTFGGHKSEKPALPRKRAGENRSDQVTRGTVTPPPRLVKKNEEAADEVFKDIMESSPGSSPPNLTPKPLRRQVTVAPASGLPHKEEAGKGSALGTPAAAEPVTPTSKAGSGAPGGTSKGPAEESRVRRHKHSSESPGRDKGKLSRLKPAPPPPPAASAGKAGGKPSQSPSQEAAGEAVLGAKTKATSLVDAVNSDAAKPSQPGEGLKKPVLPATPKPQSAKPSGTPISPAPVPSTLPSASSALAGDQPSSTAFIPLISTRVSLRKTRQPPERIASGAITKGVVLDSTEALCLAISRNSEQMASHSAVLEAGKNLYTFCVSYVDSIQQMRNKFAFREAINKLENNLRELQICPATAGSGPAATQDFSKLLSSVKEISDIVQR

[6] = biological target: SRC (GST-HIS-tag) (Homo sapiens (Human), UniProt P12931); test: as above; type: biochemical; details: indicative IC50, Table 4; ATP 0.3 uM; read-out: SRC IC50 rank
Chain of SRC (GST-HIS-tag) (P12931 whole entry, looked up): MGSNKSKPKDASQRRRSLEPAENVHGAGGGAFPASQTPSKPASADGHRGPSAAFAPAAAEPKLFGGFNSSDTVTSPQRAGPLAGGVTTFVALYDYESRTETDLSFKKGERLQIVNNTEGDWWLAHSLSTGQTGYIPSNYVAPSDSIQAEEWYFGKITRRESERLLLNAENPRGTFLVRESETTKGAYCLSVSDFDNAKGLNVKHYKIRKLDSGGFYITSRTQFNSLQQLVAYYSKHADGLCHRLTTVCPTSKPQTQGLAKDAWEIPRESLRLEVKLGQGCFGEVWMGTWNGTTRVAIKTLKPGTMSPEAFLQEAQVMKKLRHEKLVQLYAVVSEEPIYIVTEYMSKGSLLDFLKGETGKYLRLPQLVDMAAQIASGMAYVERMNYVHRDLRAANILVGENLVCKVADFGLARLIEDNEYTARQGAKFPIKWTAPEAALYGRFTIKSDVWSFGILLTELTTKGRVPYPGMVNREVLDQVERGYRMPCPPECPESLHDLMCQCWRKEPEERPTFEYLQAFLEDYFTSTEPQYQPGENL

[7] = tested on: PANC-1 tumour cells; test: Luc-CTL assay: PANC-1 cells co-cultured with TIL #1 in the presence of small molecule SIK inhibitor; details: FIGS. 7A and 7B
[8] = tested on: PANC-1 tumour cells
[9] = tested on: M579 cells; test: real-time live-cell microscopy of TIL209-mediated lysis of shRNA-transduced tumour cells; type: cell-based, human; details: co-culture with HLA-A2.1+-matched TIL209, compared to shCtrl
Text: FIG. 15: Real-time live cell microscopy showing mean+/−SEM of TIL209-mediated lysis of M579 cells transduced with shCtrl or shSIK3 lentiviral constructs. The graph indicates the area of YOYO-1+ cells/well (um2/well).
SIK3 was stably knocked down in the primary line using SIK3-specific shRNA (shSIK3) or the control non-targeting shRNA sequence (shCtrl). The shRNA sequences targeting SIK3 are set forth in Table A2, and the transduced cell lines were produced briefly as follows: lentiviral transduction particles expressing an shRNA targeting SIK3 mRNA or control shRNA (Sigma-Aldrich) were used for transduction. 5×10^4 […] cells were seeded in a 6 well plate in DMEM 10% FCS 1% P/S. After 24 h, lentiviral particles were added using multiplicity of infection (MOI)=2. 48 h from transduction, cells were put under positive selection using 0.4 μg/ml puromycin. First, the shSIK3 or shCtrl transduced tumour cells were co-cultured with HLA-A2.1+−matched TIL209, and the extent of T cell-mediated killing was monitored using in vitro real-time live-cell microscopy. […] Second, the shSIK3 and shCtrl transduced tumour cells were subcutaneously injected into the left and the right flank, respectively, of NSG immune deficient mice (FIG. 16A), and adoptive cell transfer of TIL209 or PBS injection was applied i.v. once per week (FIG. 16B Scheme).

[10] = tested on: M579 tumours; test: in vivo adoptive T cell transfer model, shCtrl or shSIK3-transduced M579 tumours in NSG mice; parameters: species or system mouse
Text: FIG. 16: (A) Schematic representation of the in vivo mouse experiment. Subcutaneous (s.c.) implantation of shCtrl or shSIK3-transduced M579 cells was applied to the left and the right flank of immunodeficient (NOD scid gamma; NSG) mice, respectively. (B) Mice received intravenous (i.v.) injection of TIL209 (n=9) or PBS alone (n=7) at day 3, 10, 17 and 24. (C) Tumour growth curves showing mean+/−SEM of tumour volume (mm3) of shCtrl or shSIK3-engrafted M579 tumours in mice treated with either TIL209 or PBS. Statistical difference was calculated using unpaired one-side Mann-Whitney U-test. (D) Binding of TNF to TNFR1 (TNFR-I) on tumour cells results in downstream signalling cascade that involve caspase 8 cleavage, NF-kappaB nuclear translocation and SIK3 phosphorylation. NF-kappaB nuclear retention is sustained by its acetylation, and HDAC4 deacetylase acts as negative regulator of NF-kappaB. TNF stimulation increases the levels of pLKB1 which in turn results in increased SIK3 activation. […]
SIK3 was stably knocked down in the primary line using SIK3-specific shRNA (shSIK3) or the control non-targeting shRNA sequence (shCtrl). […] First, the shSIK3 or shCtrl transduced tumour cells were co-cultured with HLA-A2.1+−matched TIL209, and the extent of T cell-mediated killing was monitored using in vitro real-time live-cell microscopy. […]

[11] = indicative IC50, Table 2A, ATP 1.0 uM

Compound: Cc1nc(Nc2ncc(C(=O)Nc3ccccc3S(=O)(=O)C(C)C)s2)cc(N2CCN(CCO)CC2)n1 [Compound A6, 2-((6-(4-(2-hydroxyethyl)piperazin-1-yl)-2-methylpyrimidin-4-yl)amino)-N-(2-(propane-2-sulfonyl)phenyl)thiazole-5-carboxamide]
- IC50 ([1]; indicative IC50, Table 2A): > 1 µM
- IC50 ([2]; indicative IC50, Table 2A): > 0.1 µM
- IC50 [3, 11]: > 1 µM
- tumour cell survival (RLU) [4]: remains unaffected

Compound: Cc1nc(Nc2ncc(C(=O)Nc3ccccc3)s2)cc(N2CCN(CCO)CC2)n1 [Compound A11, ((6-(4-(2-hydroxyethyl)piperazin-1-yl)-2-methylpyrimidin-4-yl)amino)-N-phenylthiazole-5-carboxamide]
- IC50 ([1]; indicative IC50, Table 2A): > 0.1 µM
- IC50 ([2]; indicative IC50, Table 2A): > 0.1 µM
- IC50 [3, 11]: > 1 µM
- tumour cell survival (RLU) [4]: remains unaffected

Compound: CCOc1cccc(Cl)c1NC(=O)c1cnc(Nc2cc(N3CCN(CCO)CC3)nc(C)n2)s1 [Compound B8, N-(2-chloro-6-ethoxyphenyl)-2-((6-(4-(2-hydroxyethyl)piperazin-1-yl)-2-methylpyrimidin-4-yl)amino)thiazole-5-carboxamide]
- IC50 ([1]; indicative IC50, Table 4): > 1 µM
- IC50 ([2]; indicative IC50, Table 4): > 1 µM
- IC50 [3]: > 5 µM
- IC50 [5]: < 0.1 µM
- IC50 [6]: < 0.1 µM
- cytotoxicity of M579 A2 cells in combination with TNF compared to inhibitor alone ([4]; TNF 10 ng/mL, inhibitor between about 10 and 100 nM, FIG. 17): fails to exhibit cytotoxicity

Compound: COc1cc(Nc2c(C#N)cnc3cc(OCCCN4CCN(C)CC4)c(OC)cc23)c(Cl)cc1Cl [bosutinib, 3-Quinolinecarbonitrile, 4-[(2,4-dichloro-5-methoxyphenyl)amino]-6-methoxy-7-[3-(4-methyl-1-piperazinyl)propoxy]-, hydrate (1:1)]
- sensitivity to TILs and/or TNF-mediated tumour lysis (cytotoxicity to viability ratio in Luc-CTL assay) [7]: remarkable increase in sensitivity to TILs and/or TNF-mediated tumour lysis

Compound: HG-9-91-01
- sensitivity to TILs and/or TNF-mediated tumour lysis (cytotoxicity to viability ratio in Luc-CTL assay) [8]: remarkable increase in sensitivity to TILs and/or TNF-mediated tumour lysis

Compound: shSIK3: SIK3-specific shRNA, Sigma TRCN0000037452, delivered by lentiviral transduction particles (DNA CCGGGCCAGGCTTTATCTTATCAAACTCGAGTTTGATAAGATAAAGCCTGGCTTTTTG)
- T cell-mediated killing [9]: increased killing efficacy
- tumour growth kinetic ([10]; PBS-treated, shCtrl versus shSIK3): no difference in the tumour growth kinetic
- tumour growth ([10]; s.c. tumours, TIL209 i.v. once per week, compared to shCtrl): retardation of tumour growth
